Test results published in patent publication US9066516B2, “Uses of thaxtomin and thaxtomin compositions as herbicides” (priority 2008, dated 2015).

Columns and labels:
Assay type in all cases: in vivo
[1] = system: Late watergrass (R) (Echinochloa phyllopogon); test: Pre-emergence test of MBI-005, lab (Example 12); settings: pre-emergent, herbicide resistant population; note: ranges in brackets are in %
Method: (§1) To further describe the spectrum of pre-emergence activity, tests were conducted in laboratory and field conditions. In laboratory testing, 35 seeds were placed on a ring of blotter paper inside a 3 cm petri dish and supplied with 4 ml of MBI-005 (≦0.1 mg MBI-005/ml). Water was used as a negative control and oryzalin applied as a positive control. Petri dishes were randomly placed in a growth room at 25° C. and 50% RH. Treatments were replicated three times and germinated seeds were counted 7 and 14 days after application; water was added as necessary to maintain moisture levels inside each petri dish.

[2] = system: Bearded Sprangletop (Leptochloa fascicularis); test: Pre-emergence test of MBI-005, lab (Example 12); settings: pre-emergent; note: ranges in brackets are in %
Method: as §1

[3] = system: Lambsquarters (Chenopodium album); test: Pre-emergence test of MBI-005, lab (Example 12); settings: pre-emergent; note: ranges in brackets are in %
Method: as §1

[4] = system: Bristlegrass/Foxtail (Setaria viridis); test: Pre-emergence test of MBI-005, lab (Example 12); settings: pre-emergent; note: ranges in brackets are in %
Method: as §1

[5] = system: crabgrass; test: Greenhouse synergy test MBI-005 + field crop herbicides (Example 11); settings: 14 days
Method: […] other herbicides commonly used for field crops, glyphosate, glufosinate, synthetic version of bialaphos, and mesotrione were also tested for synergy with MBI-005 on crabgrass and ragweed.
There were 3 replicates per treatment which were sprayed with approximately ⅔ ml per replicate. The treatments were completely randomized and kept in a greenhouse at 25° C. The efficacy was rated at 7 and 14 days post treatment.

[6] = system: Yellow nutsedge (Cyperus esculentus); test: Post-emergence test of MBI-005, lab (Example 13)
Method: (§2) To further describe the spectrum of post-emergence activity, tests were conducted in laboratory and field conditions. For laboratory testing, 3-10 plants (depending on the species) at the 1-2 leaf stage plants in 2.5 cm square pots containing Sunshine Mix No. 2 planting media were sprayed at 1 mg MBI-005/mL at a rate of 40 gal/A using a cabinet track sprayer. Negative controls were sprayed with water and positive controls with glufosinate. Pots were randomly placed in a growth room at 25° C. and 50% RH, and watered as necessary. Treatments were replicated five times and evaluated at 7 and 14 days for visual % damage, with 0% indicating no damage and 100% indicating plant death.

[7] = system: Mustard (Brassica juncea); test: Post-emergence test of MBI-005, lab (Example 13)
Method: as §2

[8] = system: Mallow (Malva parviflora); test: Post-emergence test of MBI-005, lab (Example 13)
Method: as §2

[9] = system: Redstem filaree (Erodium cicutarium); test: Post-emergence test of MBI-005, lab (Example 13)
Method: as §2

[10] = system: Sunflower (Helianthus anuus); test: Post-emergence test of MBI-005, lab (Example 13)
Method: as §2

[11] = system: Dandelion (Taraxacum oficinale); test: Post-emergence test of MBI-005, lab (Example 13)
Method: as §2

[12] = system: Bindweed (Convolvulus arvensis); test: Post-emergence test of MBI-005, lab (Example 13)
Method: as §2

[13] = system: Lambsquarters (Chenopodium album); test: Post-emergence test of MBI-005, lab (Example 13)
Method: as §2

CN1C(=O)[C@](O)(Cc2cccc(O)c2)N(C)C(=O)[C@@H]1Cc1c[nH]c2cccc([N+](=O)[O-])c12 [thaxtomin A]
Rating at 0.1 mg/ml (Reduction of Germination) [1]: ++++ (95-100) | Rating at 0.1 mg/ml (Reduction of Germination) [2]: ++++ (95-100) | Rating at 0.1 mg/ml (Reduction of Germination) [3]: +++ (85-94) | Rating at 0.1 mg/ml (Reduction of Germination) [4]: ++++ (95-100) | % Control MBI-005 ([5]; MBI-005 0.125 mg/mL (glufosinate line)): 20.0% | % Control MBI-005 ([5]; MBI-005 0.125 mg/mL (glyphosate line)): 28.3% | Rating at 1 mg/ml (Post-Emergence % control) [6]: + (0-50) | Rating at 1 mg/ml (Post-Emergence % control) [7]: ++++ (91-100) | Rating at 1 mg/ml (Post-Emergence % control) [8]: + (0-50) | Rating at 1 mg/ml (Post-Emergence % control) [9]: ++ (51-80) | Rating at 1 mg/ml (Post-Emergence % control) [10]: ++ (51-80) | Rating at 1 mg/ml (Post-Emergence % control) [11]: ++ (51-80) | Rating at 1 mg/ml (Post-Emergence % control) [12]: + (0-50) | Rating at 1 mg/ml (Post-Emergence % control) [13]: +++ (81-90)
